Assay results taken from article PMC9628899 (Antiviral Research, 2003).
Where two headings read alike, the source gives them in different places.

Assays:
[1] = test system: vaccinia virus (VV); assay: microbe, parasite or virus in culture; assay type: cell-based
[2] = test system: HFF cells
[3] = test system: cowpox virus (CV); assay: microbe, parasite or virus in culture; assay type: cell-based
[4] = test system: vaccinia virus (VV); details: read-out: EC50 Vaccinia; Table 4; ref Kern et al. (2002); cited from earlier work
[5] = test system: cowpox virus; details: mouse, in vivo, po; cited from earlier work
[6] = test system: Variola; details: read-out: EC50 Variola; cited from earlier work
[7] = test system: vaccinia, cowpox, monkeypox, and variola viruses; assay type: cell-based
[8] = test system: cowpox virus (CV); details: read-out: EC50 Cowpox; cited from earlier work
[9] = test system: Monkeypox; details: read-out: EC50 Monkeypox; cited from earlier work
[10] = test system: cowpox virus; parameters: species or system mice; details: mouse, in vivo
[11] = test system: vaccinia virus; assay type: in vivo, mice
[12] = in vitro; details: human
[13] = ref Barditch-Crovo et al., 1997; cited from earlier work
[14] = Orthopoxvirus vaccinia, HFF, read-out: EC50 VV
[15] = Cowpox virus, HFF, read-out: EC50 CV
[16] = Orthopoxvirus vaccinia, HFF, read-out: Vaccinia virus EC50
[17] = Cowpox virus, HFF, read-out: Cowpox virus EC50

Butyl salicyl cyclic HPMPC
EC50 ([1]; read-out: Vaccinia virus EC50): 32 ± 13 µM | CC50 [2]: > 213 µM | EC50 ([3]; read-out: Cowpox virus EC50): 34 ± 4.2 µM

Nc1cccc(CN2C(=O)N(Cc3cccc(N)c3)[C@H](Cc3ccccc3)[C@H](O)[C@@H](O)[C@H]2Cc2ccccc2)c1 [Mozenavir]
EC50 [1, 14]: > 100 µM | EC50 [3, 15]: > 100 µM

O=c1[nH]c(=O)n([C@@H]2O[C@H](CO)[C@@H](O)[C@@H]2F)cc1I [Fialuridine]
EC50 [1, 14]: 1.5 µM | EC50 [3, 15]: 0.24 µM

Nc1nc(O)c2ncn(COC(CO)CO)c2n1 [Ganciclovir]
EC50 [1, 14]: > 300 µM | EC50 [3, 15]: > 300 µM

Nc1nc(=O)c2ncn([C@@H]3C[C@H](CO)[C@H]3CO)c2[nH]1 [Lobucavir]
EC50 [1, 14]: 27 µM | EC50 [3, 15]: 66 µM

CCCCOC(=O)[C@H](C)NP(=O)(COCCn1cnc2c(N)ncnc21)N[C@@H](C)C(=O)OCCCC [Bis(butylalaninyl)PMEA]
EC50 ([1]; read-out: Vaccinia virus EC50): 4.4 ± 0.2 µM | CC50 [2]: 100 ± 27 µM | EC50 ([3]; read-out: Cowpox virus EC50): 10 ± 8.2 µM

C=C1[C@H](CO)[C@@H](O)C[C@@H]1n1cnc2c(=O)[nH]c(N)nc21 [Entecavir]
EC50 [1, 14]: 53 µM | EC50 [3, 15]: 85 µM

CCCCCCCCCCCCCCCCOCCCOP(=O)(O)CO[C@H](CO)Cn1ccc(N)nc1=O [HDP-CDV, 3-hexadecyloxy-l-propanol CDV]
EC50 [4]: 0.8 ± 0.4 µM | activity in cowpox virus-infected mice [5]: active | EC50 [6]: 0.1 µM | active at levels -fold less than the parent molecules [7]: 50- to 200 fold | EC50 [8]: 0.6 ± 0.3 µM | EC50 [9]: 0.07 µM | activity in cowpox virus infection of mice ([10]; po): active orally | activity in vaccinia virus infection of mice ([11]; given orally, Kern, unpublished results): active orally

C[C@H](NP1(=O)CO[C@@H](Cn2ccc(N)nc2=O)CO1)C(=O)OCCc1ccccc1 (stereo partly shown) [Phenethyl alaninyl cyclic HPMPC—mixture, Phenethyl alaninyl cyclic HPMPC]
EC50 ([1]; read-out: Vaccinia virus EC50): 7.1 ± 0.3 µM | CC50 [2]: 207 ± 18 µM | EC50 ([3]; read-out: Cowpox virus EC50): 6.8 ± 1.8 µM

CCOC(=O)C(C)NP1(=O)COC(Cn2ccc(N)nc2=O)CO1 (single isomer, unassigned; isomer ii) [Ethyl alaninyl cyclic HPMPC—isomer II, Ethyl alaninyl cyclic HPMPC]
EC50 ([1]; read-out: Vaccinia virus EC50): 15 ± 11 µM | CC50 [2]: > 278 µM | EC50 ([3]; read-out: Cowpox virus EC50): 26 ± 3.5 µM

Nc1ncnc2c1ncn2CCOCP(=O)(O)O [Adefovir, 9-(2-phosphonylmethoxyethyl)adenine]
EC50 [1, 14]: > 300 µM | EC50 [1, 16]: > 366 µM | CC50 [12]: > 366 µM | EC50 [3, 17]: > 366 µM | EC50 [3, 15]: > 300 µM

CC(C)(C)C(=O)OCOP(=O)(COCCn1cnc2c(N)ncnc21)OCOC(=O)C(C)(C)C [Adefovir dipivoxil, bis(pivaloyloxymethyl)PMEA]
oral bioavailability [13]: good oral bioavailability | EC50 [1, 14]: 5.1 µM | EC50 [1, 16]: 5.1 ± 0.7 µM | CC50 [12]: 117 ± 27 µM | EC50 [3, 17]: 13 ± 8.8 µM | EC50 [3, 15]: 13 µM

O=c1[nH]c(=O)n([C@@H]2O[C@H](CO)[C@@H](O)[C@@H]2O)cc1/C=C/Br [Sorivudine]
EC50 [1, 14]: > 100 µM | EC50 [3, 15]: > 100 µM

Nc1ccn(C[C@H]2COP(=O)(O)CO2)c(=O)n1 [Cyclic HPMPC (cHPMPC), Cyclic HPMPC]
EC50 [4]: 50.6 ± 13.1 µM | EC50 [1, 16]: 38 ± 11 µM | EC50 [6]: 45.8 µM | EC50 [8]: 48.3 ± 8 µM | EC50 [9]: 63.6 µM | CC50 [12]: > 302 µM | EC50 [3, 17]: 48 ± 8 µM

Nc1nc(N)c2ncn([C@H]3CO[C@@H](CO)O3)c2n1 [Amdoxovir]
EC50 [1, 14]: > 300 µM | EC50 [3, 15]: > 300 µM

Nc1ccn(C[C@@H](CO)OCP(=O)(O)O)c(=O)n1 [Cidofovir, (S)-1(3-hydroxy-2-phosphonylmethoxypropyl) cytosine]
EC50 [4]: 46.2 ± 11.9 µM | EC50 [1, 14]: 33 µM | EC50 [1, 16]: 33 ± 9.1 µM | EC50 [6]: 27.3 µM | EC50 [8]: 44.7 ± 6.3 µM | EC50 [9]: 4.6 µM | CC50 [12]: 278 ± 9.2 µM | EC50 [3, 17]: 43 ± 2.5 µM | EC50 [3, 15]: 43 µM

O=C(O)P(=O)(O)O [Foscarnet]
EC50 [1, 14]: > 300 µM | EC50 [3, 15]: > 300 µM

NC(=O)c1ncn([C@@H]2O[C@H](CO)[C@@H](O)[C@H]2O)n1 [Ribavirin]
EC50 [1, 14]: 280 µM | EC50 [3, 15]: > 400 µM

O=c1[nH]c(=O)n([C@H]2C[C@H](O)[C@@H](CO)O2)cc1/C=C/Br [Brivudin]
EC50 [1, 14]: > 100 µM | EC50 [3, 15]: 66 µM

CCOCn1c(Cc2ccccc2)c(C(C)C)c(=O)[nH]c1=O [Emivirine]
EC50 [1, 14]: > 300 µM | EC50 [3, 15]: > 300 µM

Nc1ncnc2c1ncn2C[C@@H](CO)OCP(=O)(O)O [HPMPA, (S)-9-(3-hydroxy-2-phosphonylmethoxypropyl)adenine]
fold more active than CDV [1]: about 10 fold | EC50 ([1]; read-out: Vaccinia virus EC50): 3.5 ± 2.8 µM | CC50 [2]: 269 ± 21 µM | EC50 ([3]; read-out: Cowpox virus EC50): 5 ± 4.7 µM

C[C@H](Cn1cnc2c(N)ncnc21)OCP(=O)(O)O [PMPA, (R)-9-(2-phosphonylmethoxypropyl)adenine]
EC50 [1, 16]: > 300 µM | CC50 [12]: > 300 µM | EC50 [3, 17]: > 300 µM

Nc1nc(=O)n([C@@H]2CS[C@H](CO)O2)cc1F [Coviracil]
EC50 [1, 14]: > 81 µM | EC50 [3, 15]: > 81 µM

Cc1cn([C@H]2O[C@@H](CO)[C@H](O)[C@H]2F)c(=O)[nH]c1=O [Clevudine]
EC50 [1, 14]: > 300 µM | EC50 [3, 15]: > 300 µM

O=c1[nH]c(=O)n([C@H]2C[C@H](O)[C@@H](CO)O2)cc1I [Idoxuridine]
EC50 [1, 14]: 6 µM | EC50 [3, 15]: 2 µM

CC(C)OC(=O)OCOP(=O)(CO[C@H](C)Cn1cnc2c(N)ncnc21)OCOC(=O)OC(C)C [Viread]
EC50 [1, 14]: > 300 µM | EC50 [3, 15]: > 300 µM

Nc1nc(NC2CC2)c2ncn(CCOCP(=O)(O)O)c2n1 [PME(N^6-cyclopropyl)DAP]
EC50 ([1]; read-out: Vaccinia virus EC50): 23 ± 6.9 µM | CC50 [2]: > 263 µM | EC50 ([3]; read-out: Cowpox virus EC50): 28 ± 13 µM

CCOC(=O)C(C)NP1(=O)COC(Cn2ccc(N)nc2=O)CO1 (single isomer, unassigned; isomer i) [Ethyl alaninyl cyclic HPMPC—isomer I, Ethyl alaninyl cyclic HPMPC]
EC50 ([1]; read-out: Vaccinia virus EC50): 15 ± 13 µM | CC50 [2]: > 276 µM | EC50 ([3]; read-out: Cowpox virus EC50): 27 ± 6.5 µM

CC(C)OC(=O)OCOP(=O)(CO[C@H](C)Cn1cnc2c(N)ncnc21)OCOC(=O)OC(C)C [Bis(isopropoxycarbonyloxymethyl)PMPA, bis(isopropoxycarbonyloxymethyl)PMPA]
EC50 [1, 16]: > 157 µM | CC50 [12]: > 157 µM | EC50 [3, 17]: > 157 µM

Nc1ccn([C@@H]2CS[C@H](CO)O2)c(=O)n1 [Lamivudine]
EC50 [1, 14]: > 400 µM | EC50 [3, 15]: > 400 µM

CCCCOC(=O)C(C)NP(=O)(COCCn1cnc2c(NC3CC3)nc(N)nc21)NC(C)C(=O)OCCCC (stereo not shown) [Bis(butylalaninyl) PME(N^6-cyclopropyl)DAP]
EC50 ([1]; read-out: Vaccinia virus EC50): 0.08 ± 0.01 µM | CC50 [2]: 49 ± 33 µM | EC50 ([3]; read-out: Cowpox virus EC50): 0.26 ± 0.2 µM

Nc1nc2c(ncn2COCCO)c(=O)[nH]1 [Acyclovir]
EC50 [1, 14]: > 300 µM | EC50 [3, 15]: > 300 µM

Nc1ccn([C@@H]2O[C@H](CO)[C@@H](O)C2(F)F)c(=O)n1 [Gemcitabine]
selectivity index [1]: > 200 | EC50 [1, 14]: 0.013 µM | toxicity in vitro (in words) [2]: very toxic | EC50 [3, 15]: 0.017 µM

Nc1nc2c(ncn2CCOCP(=O)(O)O)c(=O)[nH]1 [PMEG, 2-phosphonylmethoxyethyl guanine]
EC50 ([1]; read-out: Vaccinia virus EC50): 4 ± 0.7 µM | CC50 [2]: 88 µM | EC50 ([3]; read-out: Cowpox virus EC50): 11.4 ± 1.3 µM

CC(=O)OCC(CCn1cnc2cnc(N)nc21)COC(C)=O [Famciclovir]
EC50 [1, 14]: > 300 µM | EC50 [3, 15]: > 300 µM

CC(C)OC(=O)[C@H](C)N[P@](=O)(CO[C@H](C)Cn1cnc2c(N)ncnc21)Oc1ccccc1 [Isopropyl alaninylphenyl PMPA]
EC50 [1, 16]: 23.5 µM | CC50 [12]: > 143 µM | EC50 [3, 17]: 98.9 µM

CCCCCCCCCCCCCCCCOCCCOP1(=O)COC(Cn2ccc(N)nc2=O)CO1 (stereo not drawn) [HDP-cCDV, 3-hexadecyloxy-l-propanol cyclic CDV]
EC50 [4]: 3.8 ± 1.5 µM | EC50 [6]: 0.9 µM | active at levels -fold less than the parent molecules [7]: 50- to 200 fold | EC50 [8]: 2.1 ± 1.9 µM | EC50 [9]: 1.8 µM

Nc1nc(N)c2ncn(CCOCP(=O)(O)O)c2n1 [PMEDAP]
EC50 [1, 16]: 204 ± 15 µM | CC50 [12]: > 339 µM | EC50 [3, 17]: > 347 µM

Nc1nc2c(ncn2CCC(CO)CO)c(=O)[nH]1 [Penciclovir]
EC50 [1, 14]: > 300 µM | EC50 [3, 15]: > 300 µM

Nc1ncnc2c1ncn2[C@@H]1O[C@H](CO)[C@@H](O)[C@@H]1O [Vidarabine]
activity in murine model of cowpox virus infection [10]: not active | activity in murine model of vaccinia virus infection ([11]; data not presented): not active
